The test system of assay [1] is Pyricularia oryzae. Kind of assay: Antifungal activity against Magnaporthe oryzae assessed as radial growth inhibition at 100 ppm. It is filed as functional, organism-based.
The test system of assay [2] is Pyricularia oryzae. The experiment in a line: Antifungal activity against Magnaporthe oryzae assessed as inhibition of spore germination. In kind it is functional.
Assay [3] concerns Microdochium sorghi. The experiment in a line: Antifungal activity against Gloeocercospora sorghi in potato dextrose agar medium assessed as inhibition of radial growth. In kind it is functional.
Assay [4] concerns Microdochium sorghi. The experiment in a line: Antifungal activity against Gloeocercospora sorghi in potato dextrose agar medium assessed as inhibition of radial growth at 100 ppm. It is filed as functional.
The subject of assay [5] is Pyricularia oryzae. The experiment in a line: Antifungal activity against Magnaporthe oryzae assessed as inhibition of spore germination at 100 ppm. It is filed as functional, organism-based.

The source made the active and inactive calls. The calls are words filed in the database; no cut-off is given here.

For `COc1cc(O)c2ccc(-c3ccc(O)cc3)[o+]c2c1.[Cl-]` [7-METHOXYAPIGENINIDIN], in assay [1], the inhibition entry is “inactive”. For the same compound, the I50 in assay [2] and in assay [3] was 50 ppm in each case.
For the compound `Oc1ccc(-c2ccc3c(O)cc(O)cc3[o+]2)cc1` [APIGENIDIN], the inhibition entry in assay [1] and in assay [5] was “inactive” in each case. Further, the inhibition at 100 ppm in assay [4] came to 25%.

For orientation: inhibition means the drop in the measured response relative to a control, in per cent.
